Values after ≈ are worked out from the molar mass of the structure shown.
Tests used:
[1] = test system: K. rhizophila (formerly M. luteus) (ATCC 9341); assay: Antimicrobial susceptibility, broth dilution; assay type: cell-based; conditions: Kocuria rhizophila, ATCC9341; lowest concentration required to kill
Method: (§1) The antibacterial effects of seven hops components against five different strains of bacteria involved in primary or secondary skin and soft tissue infections was evaluated, with broth dilution methods. […] Antimicrobial susceptibility testing was performed using a broth dilution method. Gentamicin or ampicillin was used as a control to verify the methodology. A stock solution (20 mg/ml) of the test substance (or vehicle control) was prepared in dimethyl sulfoxide. Serial dilution was done in microwell plates. Reinforced Clostridial Medium was used for P. acnes (ATCC 6919). Three hundreds […] of the test substance was added to the test tube containing P. acnes (10^5 CFU/ml) in 2.7 ml of cultures grown under anaerobic conditions. Mueller-Hinston Broth suitable for culturing S. epidermidis (ATCC 12228), K. rhizophila (formerly M. luteus) (ATCC 9341), and S. aureus (ATCC […]), and Brain Heart Infusion Broth suitable for culturing S. pyogenes (ATCC 14289) were used. A total of […] of the test substance was added to the test tube containing the other microorganisms (10^5 CFU/ml) in 0.9 ml of cultures grown under controlled conditions. […] Samples from those tubes that scored positive was plated onto an agar plate and incubated under controlled conditions.

[2] = test system: P. acnes (ATCC 6919); assay: Antimicrobial susceptibility, broth dilution; assay type: cell-based; conditions: Cutibacterium acnes, ATCC6919; lowest concentration required to kill
Method: as §1

[3] = test system: S. aureus (ATCC 6538P); assay: Antimicrobial susceptibility, broth dilution; assay type: cell-based; conditions: Staphylococcus aureus, ATCC6538P; lowest concentration required to kill
Method: as §1

[4] = test system: S. epidermidis (ATCC 12228); assay: Antimicrobial susceptibility, broth dilution; assay type: cell-based; conditions: Staphylococcus epidermidis, ATCC12228; lowest concentration required to kill
Method: as §1

[5] = test system: S. pyogenes (ATCC 14289); assay: Antimicrobial susceptibility, broth dilution; assay type: cell-based; conditions: Streptococcus pyogenes, ATCC14289; lowest concentration required to kill
Method: as §1

[6] = ORAC-Total (ORAClipo + ORAChydro); conditions: among hop components
Method: (§2) In the present work, the ORAC value is expressed as the sum of values of both the water-soluble and fat-soluble parts. Green tea catechins (Polyphenon 60) were used as the control with the highest ORAC value among edible plants. Vitamin C and vitamin E were used as controls for water- and fat-soluble molecules, respectively. Both hydrophilic and lipophilic oxygen radical absorbance capacity (ORAC) assays were carried out at Brunswick Laboratory (Wareham, Mass.) based on the modified ORACfl method reported by Ou et al. (2001 J. Agric. Food Chem. 49: 4619-4626, 2002 J. Agr. Food Chem. 50: 3122-3128). Trolox, a water-soluble vitamin E analog, was used as the calibration standard. The data are expressed as mmole of Trolox equivalents per gram (mmol TE/g). […] Hydroxyl radical ORAC (HOR-AC) is expressed as mmole caffeic acid equivalent per gram (mmol CAE/g). […] The peroxyl nitrite ORAC (NORAC) result is expressed as mmol TE/g. Alpha-tocopherol (vitamin E) was used as the calibration standard, and the singlet oxygen absorbance capacity (SOAC) result is expressed as mmole a-tocopherol equivalent (mmol VtE) per gram (Aubry et al. 1989 J. Org. Chem. 54: 726-728). […] Radical-scavenging activity was measured by the change in absorbance at 517 nm with the DPPH result expressed as mmol TE/g. […] The FRAP result is expressed as mmol TE/g (Ou et al. J. Agric. Food Chem. 49: 4619-4626). […]

[7] = SOD antioxidant assay; conditions: among hop components
[8] = FRAP, ferric reducing antioxidative power; conditions: among hop components
Method: as §2, with “[table] […] The SOAC scores are not included in this figure;” for “In the present work, the”, “values used are” for “value is expressed as”, “lipophilic and hydrophilic results. For each assay category, scaling was made logarithmic so that” for “values of both”, “plot on” for “water-soluble and fat-soluble parts. Green tea catechins (Polyphenon 60) were used as”, “chart resembles” for “control with”, “associated rating. […] The larger the spatial area, the higher the overall antioxidative capacity. […]” for “highest ORAC value among edible plants. Vitamin C and vitamin E were used as controls for water- and fat-soluble molecules, respectively.”

[9] = HORAC, hydroxyl radical ORAC; conditions: among hop components
Method: as §2, with “[table] […] The SOAC scores are not included in this figure;” for “In the present work, the”, “values used are” for “value is expressed as”, “lipophilic and hydrophilic results. For each assay category, scaling was made logarithmic so that” for “values of both”, “plot on” for “water-soluble and fat-soluble parts. Green tea catechins (Polyphenon 60) were used as”, “chart resembles” for “control with”, “associated rating. […] The larger the spatial area, the higher the overall antioxidative capacity. […]” for “highest ORAC value among edible plants. Vitamin C and vitamin E were used as controls for water- and fat-soluble molecules, respectively.”

With `COc1cc(O)c(CC=C(C)C)c(O)c1C(=O)/C=C/c1ccc(O)cc1` [Xanthohumol (7), Xanthohumol] the MBC [1] was 10 µg/mL (≈ 28.2 µM), the MBC [2] was 3 µg/mL (≈ 8.46 µM) and the MBC [3] was 100 µg/mL (≈ 282 µM). For the same compound, the MBC [4] was 10 µg/mL (≈ 28.2 µM), the MBC [5] was 3 µg/mL (≈ 8.46 µM) and the “rank of quenching activity against peroxyl radical (ORAC-total), FIG. 2” value [6] was “highest quenching activity”. For the same compound, the “rank of quenching activity against superoxide (SOD), FIG. 2” value [7] was “highest quenching activity”, the “rank of quenching activity against ferric ion (FRAP), FIG. 2” value [8] was “highest quenching activity” and the “rank of quenching activity against hydroxyl radical (HORAC), FIG. 2” value [9] was “highest quenching activity”.
